Data set [1] deals with C. albicans CAF2-1 strains. The data set can be described thus: Anticandidal activity (MIC measurement). The note with it: for MIC: Candida albicans, CAF21STRAINS; for Anticandidal activity compared with amphotericin B: result in words. It counts as cell-based. The protocol:
The anticandidal activity of Reference Examples 1, 2, and 3 and Comparative Examples 1, 2, and 3 produced using Examples and amphotericin B was measured as follows.
C. albicans CAF2-1 strains were subjected to static culture in a Sabouraud dextrose liquid culture medium (SDB) at 30° C. for 48 hours; and the bacterial suspension was diluted with an RPMI1640 culture medium to prepare a 1.2×10^3 cells/mL bacterial suspension.
The diluted solutions of eight test compounds in plates (A to H) were prepared using a U-bottomed 96-well plate. 10 μL of a dimethyl sulfoxide solution was poured into columns 2 to 12 of the individual plates. The weighed test compounds were separately dissolved in dimethyl sulfoxide to prepare 2.5 mg/mL solutions; then, these solutions (20 μL) were placed in column 1 of the prepared plates, and were subjected to two-fold serial dilution in 12 steps on the plates (10 μL of solution+10 μL of dimethyl sulfoxide solution). The diluted solutions of the test compounds each were placed in a flat-bottomed 96-well plate for MIC measurement in an amount of 1 μL to prepare plates of the diluted test compound.
The bacterial suspension prepared in (1) (99 μL/well) was inoculated into the flat-bottomed 96-well plate containing the diluted solutions of the test compounds (1 μL/well) prepared in (2), and was subjected to static culture at 35° C. for 42 to 48 hours under an aerobic condition.

Data set [2] in a line: Metabolic stability of pooled human liver microsomes. Type of data set: in vitro ADME. Particulars: for Residual rate of unchanged substance (%): 0.3 μM compound, 0.2 mg/mL microsomes, 37° C., NADPH; for microsomal CLint at 0.3 μM: ke/(concentration of pooled human liver microsomes), read-out: Hepatic intrinsic clearance; for Clearance of human liver microsomes compared with the respective Comparative Example: result in words. How it is done: Evaluations on the metabolic stability of human liver microsomes prepared in Reference Examples 1 and 2 and Comparative Examples 1 and 2 produced using Examples were performed as follows.
A test compound was added to an enzyme solution (pooled human liver microsomes (0.2 mg/mL), 100 mM Kpi, containing 0.1 mM EDTA), and was incubated in the presence of a coenzyme for a predetermined time at 37° C. The final concentration of the test compound was 0.3 μM. As the coenzyme, an NADPH-generating system (solution in which 60 mM MgCl2 solution containing 3.6 mM β-NADP^+, 90 mM glucose-6-phosphate, and 1 Unit/mL glucose-6-phosphate dehydrogenated enzyme was incubated at 37° C. for 5 minutes to generate NADPH) was used. After pre-incubation, part of the reaction solution was extracted; a double amount of a mixed solution of acetonitrile and methanol (7:3, containing 1.0 μM Propranolol as an internal standard substance) was added to terminate the reaction, and the concentration of the unchanged substance in the reaction solution was measured by LC-MS/MS. Based on the peak area of the unchanged substance obtained, the residual rate (%) of the unchanged substance was calculated wherein the residual rate at 0 min (incubation time) was 100%. Namely, the inclination of the straight line obtained when the value obtained by natural logarithmic conversion of the residual rate of the unchanged substance after a predetermined reaction time was plotted as the ordinate, and the reaction time was plotted as the abscissa was defined as an elimination rate constant (ke). Based on the obtained elimination rate constant ke, the hepatic intrinsic clearance of the test compound was calculated with the following expression: Hepatic intrinsic clearance (mL/min/mg protein)=ke/(concentration of pooled human liver microsomes: mg protein/mL)
In general terms: Liver microsomes are a subcellular fraction often used to study metabolism.

Data set [3] can be described thus: Evaluation on solubility (HPLC-UV, phosphate-buffered saline). It counts as physicochemical. Particulars: for solubility: aqueous buffer, kinetic from dmso stock, Dulbecco's phosphate-buffered saline pH 7 (GIBCO), room temperature, about 15 minutes shaking; for Solubility compared with Comparative Example 1 and Comparative Example 2: phosphate-buffered saline pH 7, result in words. How it is done: The supernatant was then separated through vacuum filtration operation. A dimethyl sulfoxide solution (sample concentration: 100 μM) was used as a standard solution, and the sample concentration in the supernatant determined by an HPLC-UV method was defined as solubility. Test solution: pH of 7, GIBCO™ (Dulbecco's phosphate-buffered saline, Invitrogen Corporation)

Data set [4] is described as follows: Evaluation on lipid solubility: distribution ratio (D) of 1-octanol to water by ODS column HPLC. The note with it: 1-octanol/water, pH 6.8, from HPLC retention on ODS column. It counts as physicochemical. The protocol:
A parameter of lipid solubility, i.e., a distribution ratio (D) of a 1-octanol to water (pH: 6.8) was determined with an ODS (silica gel having a surface modified with an octadecylsilyl group) column by the following method.
The mobile phase shown in Table 2 was added to sodium nitrate (to marker) and six standard substances having known partition coefficients shown in Table 2 to prepare mixed solutions each containing 5 μg/mL sodium nitrate and a 10 μg/mL or 10 μL/mL standard substance; these mixed solutions were used as standard solutions. The mobile phase shown in Table 3 was added to a sample, the concentration was adjusted to 0.1 mM to prepare a sample solution. HPLC analysis of the standard solutions and the sample solution was performed on the following conditions, and the retention times (tr) of the standard substances and the sample were measured. From the retention factor (kstd) determined from the partition coefficient (log P) of the standard substance and Expression I, the regression coefficient (a) and the constant term (b) in Expression II were determined; using Expression III, the partition coefficient (log D) at a pH of 6.8 was calculated from the retention factor (ksmpt) of the sample; finally, the distribution ratio (D) of 1-octanol to water (pH: 6.8) was obtained.
Reference: Exploring QSAR-Hydrophobic, and Steric Constants, Corwin Hansch, Albert Leo, and David Hoekman, ACS Professional Reference Book k=(tr−t0)/t0 Expression I log P=a×log kstd+b Expression II log D=a×log ksmp+b Expression III (2) Measurement Conditions

The conditions of data set [5]: standard substances, known values (Hansch, Leo, Hoekman); cited from earlier work.
The mark [6] stands for this setting: RPMI1640, 35° C., 42 to 48 hours, visually determined.

The term solubility denotes the dissolved amount per volume that the medium holds. A lower solubility goes with a poorly soluble substance. Broadly, the chromatographic logD is a lipophilicity value derived from retention on a column. A word on the MIC: it is the least concentration at which growth counts as inhibited. A low value points to inhibition by little substance.

Each structure is given as a SMILES string. ≈ marks a conversion by molar mass, not a printed value.

Regarding `C[C@@H]1[C@H](O)[C@@H](C)/C=C/C=C/C=C/C=C/C=C/C=C/C=C/[C@H](O[C@@H]2O[C@H](C)[C@@H](O)[C@H](N)[C@@H]2O)C[C@@H]2O[C@](O)(C[C@@H](O)C[C@@H](O)[C@H](O)CC[C@@H](O)C[C@@H](O)CC(=O)O[C@H]1C)C[C@H](O)[C@H]2C(=O)O` [Amphotericin B], the “Anticandidal activity (MIC)” value in data set [1] (setting [6]) was 1.6 µg/mL.

Take `Cc1cc(Cc2ccc(CNC(=O)c3ccc(N)nc3N)cc2)sc1C` [Comparative Example 1, 2,6-Diamino-N-({4-[(4,5-dimethylthiophen-2-yl)methyl]phenyl}methyl)-pyridine-3-carboxamide, reference compound]: the “Residual rate of unchanged substance (%)” value in data set [2] (After 0 min (defined as 100%)) came to 100.0%; in data set [2] (After 15 min) it was 93.1%; in data set [2] (After 30 min) it was 77.0%; in data set [2] (After 60 min) it was 56.2%. In addition, the microsomal CLint at 0.3 μM in data set [2] came out at 50 µL/min/mg. Besides, the solubility in data set [3] turned out to be 0.2 µM (≈ 0.0733 µg/mL). Also, the chromatographic logD in data set [4] is 3.27. The same compound had an MIC in data set [1] (setting [6]) of 0.13 µg/mL (≈ 0.355 µM). Further, in data set [1], the “Anticandidal activity compared with amphotericin B” value is recorded as “strong anticandidal activity equal to that of amphotericin B”.

`Cc1nc(N)c(C(=O)NCc2ccc(COc3ccccn3)cc2)nc1C` [Comparative Example 2, 3-Amino-5,6-dimethyl-N-({4-[(pyridin-2-yloxy)methyl]phenyl}methyl)pyrazine-2-carboxamide, reference compound]: the “Residual rate of unchanged substance (%)” value worked out at 100.0% in data set [2] (After 0 min (defined as 100%)), 73.0% in data set [2] (After 15 min), 53.7% in data set [2] (After 30 min) and 30.9% in data set [2] (After 60 min). The microsomal CLint at 0.3 μM in data set [2] worked out at 98 µL/min/mg. In data set [3], this compound had a solubility of 0.9 µM (≈ 0.327 µg/mL). The chromatographic logD in data set [4] is 3.26. The compound also yielded an MIC in data set [1] (setting [6]) of 0.063 µg/mL (≈ 0.173 µM). Further, the “Anticandidal activity compared with amphotericin B” value in data set [1] is reported as “strong anticandidal activity equal to that of amphotericin B”.

In the case of `Cc1cc(C(=O)NCc2ccc(OCc3ccccc3)cc2)c(N)nc1C` [Comparative Example 3, 2-Amino-N-(4-(benzyloxy)benzyl)-5,6-dimethylnicotinamide, reference compound], the results for the “Residual rate of unchanged substance (%)” value in data set [2] (After 0 min (defined as 100%)) and in data set [2] (After 15 min) were 100.0% and 65.0%, respectively. For the same compound, the microsomal CLint at 0.3 μM in data set [2] worked out at 150 µL/min/mg. Also, the chromatographic logD in data set [4] was 3.41. In data set [1] (setting [6]), this compound displayed an MIC of 0.13 µg/mL (≈ 0.36 µM). Also, in data set [1], the “Anticandidal activity compared with amphotericin B” value is recorded as “strong anticandidal activity equal to that of amphotericin B”.

`Nc1ccc(C(=O)NCc2ccc(Cc3cc4c(s3)COC4)cc2)c(N)n1` [Reference Example 1]: the “Residual rate of unchanged substance (%)” value in data set [2] (After 0 min (defined as 100%)) was determined as 100.0%; in data set [2] (After 15 min), 83.6%; in data set [2] (After 30 min), 75.9%; in data set [2] (After 60 min), 61.4%. For the same compound, the microsomal CLint at 0.3 μM in data set [2] is 39 µL/min/mg. In addition, the “Clearance of human liver microsomes compared with the respective Comparative Example” value in data set [2] was “improved”. Also, the solubility in data set [3] is 13.9 µM (≈ 5.29 µg/mL). For the same compound, the “Solubility compared with Comparative Example 1 and Comparative Example 2” value in data set [3] is “higher”. Also, in data set [4], the chromatographic logD is 2.15. In addition, the MIC in data set [1] (setting [6]) came out at 0.25 µg/mL (≈ 0.657 µM). Besides, the “Anticandidal activity compared with amphotericin B” value in data set [1] was “strong anticandidal activity equal to that of amphotericin B”.

For `Nc1nc2c(nc1C(=O)NCc1ccc(COc3ccccn3)cc1)COC2` [Reference Example 2, 5-Amino-N-({4-[(pyridin-2-yloxy)methyl]phenyl}methyl)-1,3-dihydrofuro[3,4-b]pyrazine-6-carboxamide], the “Residual rate of unchanged substance (%)” value stood at 100.0% in data set [2] (After 0 min (defined as 100%)), 87.0% in data set [2] (After 15 min), 77.6% in data set [2] (After 30 min) and 65.4% in data set [2] (After 60 min). The microsomal CLint at 0.3 μM in data set [2] amounted to 35 µL/min/mg. The “Clearance of human liver microsomes compared with the respective Comparative Example” value in data set [2] is recorded as “improved”. The solubility in data set [3] was determined as 2.1 µM (≈ 0.793 µg/mL). In addition, in data set [3], the “Solubility compared with Comparative Example 1 and Comparative Example 2” value was “higher”. For the same compound, in data set [4], the chromatographic logD is 2.72. For the same compound, the MIC in data set [1] (setting [6]) amounted to 0.5 µg/mL (≈ 1.32 µM). The “Anticandidal activity compared with amphotericin B” value in data set [1] is “strong anticandidal activity equal to that of amphotericin B”.

`Nc1nc2c(cc1C(=O)NCc1ccc(OCc3ccccc3)cc1)COC2` [Reference Example 3]: the “Residual rate of unchanged substance (%)” value in data set [2] (After 0 min (defined as 100%)) came out at 100.0%. In data set [2] (After 15 min), the “Residual rate of unchanged substance (%)” value came to 78.0%. In addition, in data set [2], the microsomal CLint at 0.3 μM turned out to be 82 µL/min/mg and the “Clearance of human liver microsomes compared with the respective Comparative Example” value was “improved”. Besides, the chromatographic logD in data set [4] is 2.72. Moreover, the MIC in data set [1] (setting [6]) was 2 µg/mL (≈ 5.33 µM). Further, the “Anticandidal activity compared with amphotericin B” value in data set [1] is recorded as “strong anticandidal activity equal to that of amphotericin B”.

Regarding `CCCCc1ccccc1` [n-Butylbenzene], the “Partition coefficient (logP)” value in data set [5] is reported as 4.38.

The values are drawn from patent US9975910B2, “Hetero-fused cyclic compound” (Eisai R&D Management Co., Ltd., priority 2013, dated 2018).
